Measured values taken from ChEMBL document CHEMBL4354802, “Peptide derivatives as inhibitors of NS2B-NS3 protease from Dengue, West Nile, and Zika flaviviruses” (Bioorg Med Chem, 2019).
Non-standard residues stand in square brackets, D forms with d. Residues, ends and D or L forms follow the SMILES beside them. ξ: configuration not given here. *: point of attachment. Trp(5-NO2) = N[C@@H](Cc1c[nH]c2ccc([N+](=O)[O-])cc12)C(=O)O; Gly(2-naphthyl) = N[C@H](C(=O)O)c1ccc2ccccc2c1; ξR = N=C(N)NCCCC(N)C(=O)O; 2Abz = Nc1ccccc1C(=O)O; PhAc = O=C(Cc1ccccc1)*

Tests used:
[1] = target: T1, Genome polyprotein (West Nile virus, UniProt P06935); assay: Inhibition of West Nile virus NS2B-NS3 protease preincubated for 1 hr followed by Pyr-RTKR-AMC addition and measured after 30 mins by fluorescence method
[2] = target: thrombin (prothrombin) (Homo sapiens, UniProt P00734); assay: Inhibition of human thrombin at 25 uM preincubated for 15 mins followed by Boc-Val-Pro-Arg-AMC addition and measured for 10 mins by continuous fluorimetric assay relative to control; conditions: human thrombin enzyme, probe Boc-Val-Pro-Arg-AMC
[3] = target: T2, Nonstructural protein 3 (Zika virus, UniProt A0A024AXB9); assay: Inhibition of Zika virus unlinked NS2B-NS3 protease preincubated for 5 mins followed by benzoyl-nKRR-AMC addition and measured every 60 secs for 12 mins by fluorescence method
[4] = target: T1, Genome polyprotein; assay: Inhibition of West Nile virus NS2B (47 residues)-NS3 (184 residues) protease expressed in Escherichia coli BL21 (DE3) preincubated for 15 mins followed by Benzoyl-Nle-KRR-AMC addition and measured after 30 mins by fluorescence method
[5] = target: T2, Nonstructural protein 3; assay: Inhibition of Zika virus IbH_30656 NS2B (45 to 96 residues)-NS3 (1 to 177 residues) protease expressed in Escherichia coli BL21/Rosetta (DE3) cells preincubated for 60 mins followed by Bz-nKRR-AMC addition and measured at 60 secs intervals over 10 mins by fluorescence method
[6] = target: T2, Nonstructural protein 3; assay: Inhibition of N-terminal His6-SUMO tagged Zika virus Puerto Rico NS2B-NS3 unlinked protease expressed in Escherichia coli BL21 Codon Plus (DE3) cells preincubated for 90 mins followed by pyr-TGKR-AMC addition and measured every 5 secs for 2 mins by fluorometric enzyme assay
[7] = target: T2, Nonstructural protein 3; assay: Inhibition of N-terminal His6-SUMO tagged Zika virus Puerto Rico NS2B-NS3 unlinked protease expressed in Escherichia coli BL21 Codon Plus (DE3) cells preincubated for 10 mins followed by pyr-TGKR-AMC addition and measured every 5 secs for 2 mins by fluorometric enzyme assay
[8] = target: T2, Nonstructural protein 3; assay: Inhibition of N-terminal His6-SUMO tagged Zika virus Puerto Rico NS2B-NS3 linked protease expressed in Escherichia coli BL21 Codon Plus (DE3) cells preincubated for 10 mins followed by pyr-TGKR-AMC addition and measured every 5 secs for 2 mins by fluorometric enzyme assay
[9] = target: T1, Genome polyprotein; assay: Inhibition of West Nile virus protease
[10] = target: T3, Genome polyprotein (dengue virus type 2, UniProt P29990); assay: Inhibition of Dengue virus serotype 2 NS2B(40 residues)-NS3 (185 residues) protease preincubated for 30 mins followed by ABz-nKRR-AMC addition and measured after 30 mins by fluorescence method
[11] = target: Genome polyprotein; assay: Inhibition of Dengue virus serotype 1 NS2B-NS3 protease preincubated for 20 mins followed by Abz-RRRRSAG-nY-NH2 addition and measured for 60 mins by fluorescence method; set-up: species or system dengue virus type 1
Target sequence in this assay (P29990 1346-1475 limits assumed): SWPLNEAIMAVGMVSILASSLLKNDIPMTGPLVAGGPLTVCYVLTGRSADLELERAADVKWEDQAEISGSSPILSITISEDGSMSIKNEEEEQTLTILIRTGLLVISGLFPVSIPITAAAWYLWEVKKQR
Target sequence in this assay (P29990 1476-2093 limits assumed): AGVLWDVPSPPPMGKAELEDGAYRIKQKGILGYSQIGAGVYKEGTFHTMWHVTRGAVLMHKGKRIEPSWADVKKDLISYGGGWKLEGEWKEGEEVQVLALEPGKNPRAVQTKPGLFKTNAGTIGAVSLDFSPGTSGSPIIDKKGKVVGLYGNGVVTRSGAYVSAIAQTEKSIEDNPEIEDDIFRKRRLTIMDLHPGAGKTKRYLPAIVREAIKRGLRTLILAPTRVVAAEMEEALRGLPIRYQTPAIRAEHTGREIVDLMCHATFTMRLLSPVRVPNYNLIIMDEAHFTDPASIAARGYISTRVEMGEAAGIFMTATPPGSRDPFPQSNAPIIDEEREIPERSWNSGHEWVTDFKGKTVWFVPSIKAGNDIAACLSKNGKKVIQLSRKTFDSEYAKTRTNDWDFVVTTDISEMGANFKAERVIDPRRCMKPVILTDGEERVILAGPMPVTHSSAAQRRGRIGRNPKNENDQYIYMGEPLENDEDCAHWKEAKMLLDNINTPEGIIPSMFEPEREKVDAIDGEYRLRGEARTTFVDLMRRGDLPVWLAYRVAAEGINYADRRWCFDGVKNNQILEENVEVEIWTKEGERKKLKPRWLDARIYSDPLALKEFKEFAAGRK

[12] = target: T3, Genome polyprotein; assay: Inhibition of Dengue virus serotype 2 NS2B-NS3 protease preincubated for 20 mins followed by Abz-RRRRSAG-nY-NH2 addition and measured for 60 mins by fluorescence method
[13] = target: T1, Genome polyprotein; assay: Inhibition of West Nile virus NS2B-NS3 protease preincubated for 10 mins followed by Np-KKR-pNA addition and measured every 5 secs for 2 mins by fluorescence method

T2 sequence (A0A024AXB9 whole entry): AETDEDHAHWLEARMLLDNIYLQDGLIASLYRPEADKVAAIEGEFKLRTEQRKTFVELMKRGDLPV
T3 sequence (P29990 1346-1475 limits assumed): as the sequence (P29990 1346-1475 limits assumed) above
T3 sequence (P29990 1476-2093 limits assumed): as the sequence (P29990 1476-2093 limits assumed) above
T1 sequence (P06935 1371-1501 limits assumed): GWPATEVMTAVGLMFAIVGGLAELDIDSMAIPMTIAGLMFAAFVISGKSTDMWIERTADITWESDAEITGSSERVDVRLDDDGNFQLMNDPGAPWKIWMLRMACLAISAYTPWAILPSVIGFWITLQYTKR
T1 sequence (P06935 1502-2120 limits assumed): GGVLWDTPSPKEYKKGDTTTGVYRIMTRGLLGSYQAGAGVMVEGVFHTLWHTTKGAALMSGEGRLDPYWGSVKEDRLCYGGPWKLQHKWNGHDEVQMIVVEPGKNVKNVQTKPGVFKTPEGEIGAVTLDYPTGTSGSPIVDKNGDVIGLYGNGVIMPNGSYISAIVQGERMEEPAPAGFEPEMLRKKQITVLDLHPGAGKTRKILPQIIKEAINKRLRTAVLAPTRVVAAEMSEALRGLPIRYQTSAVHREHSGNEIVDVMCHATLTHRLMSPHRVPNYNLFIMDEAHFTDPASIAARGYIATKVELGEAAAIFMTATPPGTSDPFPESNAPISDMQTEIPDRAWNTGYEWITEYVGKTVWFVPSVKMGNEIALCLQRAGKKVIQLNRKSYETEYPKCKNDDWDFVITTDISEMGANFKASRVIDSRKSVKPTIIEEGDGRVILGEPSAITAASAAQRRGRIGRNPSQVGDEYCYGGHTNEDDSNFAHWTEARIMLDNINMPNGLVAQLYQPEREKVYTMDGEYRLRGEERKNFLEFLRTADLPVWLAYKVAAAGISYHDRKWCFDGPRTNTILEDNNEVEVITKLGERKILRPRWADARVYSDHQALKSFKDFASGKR

Q: With `CC(=O)N[C@@H](CCCCN)C(=O)N[C@@H](CCCCN)C(=O)NCCCCNC(=N)N` as the molecule, how does the IC50 [1] read?
A: 18700 nM

Q: And the Ki [1]?
A: 4900 nM

Q: How did the inhibition at 10 min, 25 µM [2] turn out when `CCCC[C@H](NC(=O)[C@H](CCCCN)NC(=O)[C@H](CCCNC(=N)N)NC(=O)c1ccc(/C=C(\C#N)C(=O)NC2CC2)cc1)C(N)=O` was run?
A: 13.4%

Q: `N=C(N)NCCC[C@H](NC(=O)[C@H](CCCCN)NC(=O)[C@H](CCCCN)NC(=O)Cc1ccc(CNC(=N)N)cc1)C(N)=O` was tested. Which IC50 [3] did it give?
A: 1600 nM

Q: And the Ki [3]?
A: 600 nM

Q: `N=C(N)NCCCC(C=O)NC(=O)[C@H](CCCCN)NC(=O)c1ncc[nH]1` (stereo not given in full) was tested. Which Ki [4] did it give?
A: 120 nM

Q: How did the IC50 [5] turn out when `[H]/N=C(\N)NCCC[C@@H](C=O)NC(=O)[C@H](CCCCN)NC(C)=O` was run?
A: 280 nM

Q: Which results are given for `N=C(N)NCCC[C@H](NC(=O)c1nccs1)C(=O)N[C@@H](CCCCN)C(=O)N[C@H](C(N)=O)c1ccc(OCc2ccc(C(F)(F)F)cc2)cc1`?
A: IC50 [6]: 1350 nM; IC50 [7]: 1060 nM; IC50 [8]: 1040 nM

Q: With `N=C(N)NCCC[C@H](NC(=O)Cc1ccc(CNC(=N)N)cc1)C(=O)N[C@@H](CCCNC(=N)N)C(=O)N[C@@H](CCCNC(=N)N)C(=O)NCc1ccc(C(=N)N)cc1` as the molecule, how does the IC50 [3] read?
A: 1100 nM

Q: And the Ki [3]?
A: 430 nM

Q: Which IC50 [9] does the source give for `N=C(N)NCCC[C@@H](C=O)NC(=O)[C@H](CCCCN)NC(=O)[C@H](CCCCN)NC(=O)Cc1ccc(-c2ccccc2)cc1` here?
A: 56 nM

Q: What about the IC50 [10] of the same molecule?
A: 12200 nM

Q: How did the Ki [11] turn out when `CC(=O)N[C@@H](CCCNC(=N)N)C(=O)N[C@@H](CCCNC(=N)N)C(=O)N[C@@H](CCCNC(=N)N)C(=O)N[C@@H](CCCNC(=N)N)C(=O)N[C@@H](Cc1cnc[nH]1)C(=O)N[C@@H](Cc1c[nH]c2ccccc12)C(=O)N[C@@H](CS)C(=O)N[C@@H](Cc1c[nH]c2ccccc12)C(N)=O` (Ac-RRRRHWCW-NH2) was run?
A: 400 nM

Q: What about the Ki [12] of the same molecule?
A: 300 nM

Q: For `N=C(N)NCCCC(NC(=O)[C@H](CCCCN)NC(=O)[C@H](CCCCN)NC(=O)[C@@H](NC(=O)[C@H](Cc1c[nH]cn1)NC(=O)CNC(=O)CN)c1ccc2ccccc2c1)C(N)=O` (stereo not given in full) (H-GGH[Gly(2-naphthyl)]KK[ξR]-NH2), which Ki [13] is on record?
A: 8000 nM

Q: Which Ki [11] does the source give for `CC(C)C[C@H](NC(=O)[C@H](Cc1cnc[nH]1)NC(=O)[C@H](CCCNC(=N)N)NC(=O)[C@H](CCCNC(=N)N)NC(=O)[C@H](CCCNC(=N)N)NC(=O)[C@@H](N)CCCNC(=N)N)C(=O)N[C@@H](CS)C(=O)N[C@@H](Cc1c[nH]c2ccccc12)C(N)=O` (H-RRRRHLCW-NH2) here?
A: 300 nM

Q: And the Ki [12]?
A: 400 nM

Q: For `N=C(N)NCCC[C@H](NC(=O)[C@H](CCCNC(=N)N)NC(=O)[C@H](CCCNC(=N)N)NC(=O)[C@@H](N)CCCNC(=N)N)C(=O)N[C@@H](Cc1cnc[nH]1)C(=O)N[C@@H](Cc1c[nH]c2ccccc12)C(=O)N[C@@H](CS)C(=O)N[C@@H](Cc1c[nH]c2ccccc12)C(N)=O` (H-RRRRHWCW-NH2), which Ki [11] is on record?
A: 400 nM

Q: And the Ki [12]?
A: 300 nM

Q: What does the source list for `CC(C)C[C@H](NC(=O)[C@H](Cc1cnc[nH]1)NC(=O)[C@H](CCCNC(=N)N)NC(=O)[C@H](CCCNC(=N)N)NC(=O)[C@H](CCCNC(=N)N)NC(=O)[C@H](CCCNC(=N)N)NC(=O)c1ccccc1N)C(=O)N[C@@H](CS)C(=O)N[C@@H](Cc1c[nH]c2ccc([N+](=O)[O-])cc12)C(N)=O` (H-[2Abz]RRRRHLC[Trp(5-NO2)]-NH2)?
A: Ki [11]: 300 nM; Ki [12]: 1100 nM

Q: `N=C(N)NCCC[C@H](NC(=O)[C@H](CCCCN)NC(=O)[C@H](CCCCN)NC(=O)Cc1ccccc1)C(=O)NCC(=O)NCC(N)=O` (PhAc-KKRGG-NH2) was tested. Which IC50 [3] did it give?
A: 1200 nM

Q: What about the Ki [3] of the same molecule?
A: 470 nM
